From patent US12662491B2 (Redona Therapeutics, Inc., priority 2020, dated 2026)
Like-named read-outs stand apart in the source and are kept apart here.

Biological target: T1, Zcchc11 enzyme (Homo sapiens, UniProt Q5TAX3)
T1 construct: made in house; host or cells: HEK293 cells (Zcchc11); E. coli Rosetta II (LIN28A)
T1 sequence (Q5TAX3 212-1420): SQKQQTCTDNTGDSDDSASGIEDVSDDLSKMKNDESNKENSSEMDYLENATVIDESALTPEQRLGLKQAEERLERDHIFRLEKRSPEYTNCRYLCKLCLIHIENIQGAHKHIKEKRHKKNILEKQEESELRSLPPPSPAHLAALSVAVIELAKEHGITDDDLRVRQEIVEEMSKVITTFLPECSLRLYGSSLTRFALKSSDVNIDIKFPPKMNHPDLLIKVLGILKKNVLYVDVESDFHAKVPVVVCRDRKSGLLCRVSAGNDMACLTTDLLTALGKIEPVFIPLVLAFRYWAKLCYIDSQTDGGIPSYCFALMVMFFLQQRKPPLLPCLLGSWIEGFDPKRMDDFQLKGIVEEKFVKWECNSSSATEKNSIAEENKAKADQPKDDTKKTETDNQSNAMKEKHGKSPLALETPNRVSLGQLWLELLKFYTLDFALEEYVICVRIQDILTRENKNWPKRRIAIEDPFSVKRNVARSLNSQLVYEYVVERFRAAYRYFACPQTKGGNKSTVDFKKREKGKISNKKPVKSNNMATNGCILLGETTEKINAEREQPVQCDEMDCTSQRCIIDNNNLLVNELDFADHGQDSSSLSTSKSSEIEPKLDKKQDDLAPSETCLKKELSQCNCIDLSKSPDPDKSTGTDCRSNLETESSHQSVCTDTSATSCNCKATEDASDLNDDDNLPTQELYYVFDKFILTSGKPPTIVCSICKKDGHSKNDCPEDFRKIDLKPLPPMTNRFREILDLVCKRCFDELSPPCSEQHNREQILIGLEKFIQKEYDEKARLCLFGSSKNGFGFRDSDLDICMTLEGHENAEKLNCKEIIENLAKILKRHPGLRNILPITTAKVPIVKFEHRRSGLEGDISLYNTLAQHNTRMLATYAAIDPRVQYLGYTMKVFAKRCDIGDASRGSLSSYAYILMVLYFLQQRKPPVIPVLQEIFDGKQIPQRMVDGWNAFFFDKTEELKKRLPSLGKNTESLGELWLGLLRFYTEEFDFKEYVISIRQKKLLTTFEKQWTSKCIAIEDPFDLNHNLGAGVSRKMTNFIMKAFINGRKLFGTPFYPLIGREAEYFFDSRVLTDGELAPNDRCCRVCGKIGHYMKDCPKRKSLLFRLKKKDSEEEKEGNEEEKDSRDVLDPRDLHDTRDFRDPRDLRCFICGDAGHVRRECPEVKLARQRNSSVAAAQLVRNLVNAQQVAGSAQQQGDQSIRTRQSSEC
Test: TUTase assay (Zcchc11 assay, Lin28a-dependent polyuridylation of pre-let-7)
Type: biochemical
Settings: read-out: Potency Lin28a-dep Z11 IC50
Method in brief: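 HEK293-expressed human Zcchc11 (residues 212-1420, 0.2 nM) with 10 nM LIN28A and 2 nM 5′-fluorescein pre-let-7, preincubated 30 min at room temperature, pH 7.3. Started with 5 uM UTP; poly(U) tails quenched by 3′-rhodamine A20 probe, read kinetically. IC50 from early-rate four-parameter fit; no-UTP wells define 0%.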

[1] = Lin28a-dependent Zcchc11 (Z11) TUTase assay
[2] = Lin28a-dependent Zcchc11 (Z11) TUTase activity
[3] = LIN28A 10 nM, Zcchc11 0.2 nM, 5′-fluorescein pre-let-7 miRNA 2 nM, UTP 5 uM, room temperature, 30 minutes pre-incubation

Structure (SMILES) | IC50 [1] | IC50 [2] | further results
COc1cc2c(=O)c(C(=O)O)cn(-c3ccc(N4CC(N(C)C)C4)nc3)c2cc1N1CCC[C@@H]1COc1ncccc1Cl [Example 524, (R)-7-(2-(((3-chloropyridin-2-yl)oxy)methyl)pyrrolidin-1-yl)-1-(6-(3-(dimethylamino)azetidin-1-yl)pyridin-3-yl)-6-methoxy-4-oxo-1,4-dihydroquinoline-3-carboxylic acid] | 1 to 10 µM |  | 
CN(C)C1CN(c2ccc(-n3cc(C(=O)O)c(=O)c4cc(Cl)c(N5CCC(C)(C)C5COc5ncccc5Cl)cc43)cn2)C1 (stereo not shown) [Example 59, 6-chloro-7-(2-{[(3-chloropyridin-2-yl)oxy]methyl}-3,3-dimethylpyrrolidin-1-yl)-1-{6-[3-(dimethylamino)azetidin-1-yl]pyridin-3-yl}-4-oxoquinoline-3-carboxylic acid] |  |  | IC50 [3]: ≤ 1 µM
O=C(O)c1cn(-c2ccc(O)cc2F)c2cc(N3CCC[C@@H]3COc3cnccn3)c(F)cc2c1=O [Compound 89, (R)-6-fluoro-1-(2-fluoro-4-hydroxy-phenyl)-4-oxo-7-(2-((pyrazin-2-yloxy)methyl)pyrrolidin-1-yl)-1,4-dihydro-quinoline-3-carboxylic acid] |  | 10 to 50 µM | 
CN(C)[C@@H]1CCN(c2ccc(-n3cc(C(=O)O)c(=O)c4cc(Cl)c(N5CCC[C@@H]5COc5ncccc5Cl)cc43)cn2)C1 [Example 522, 6-chloro-7-((R)-2-(((3-chloropyridin-2-yl)oxy)methyl)pyrrolidin-1-yl)-1-(6-((R)-3-(dimethylamino)pyrrolidin-1-yl)pyridin-3-yl)-4-oxo-1,4-dihydroquinoline-3-carboxylic acid] | ≤ 1 µM |  | 
CN(C)C1CN(c2ccc(-n3cc(C(=O)O)c(=O)c4cc(F)c(N5CCC[C@]5(C)COc5ncccc5Cl)nc43)cn2)C1 [Example 620, (R)-7-(2-(((3-chloropyridin-2-yl)oxy)methyl)-2-methylpyrrolidin-1-yl)-1-(6-(3-(dimethylamino)azetidin-1-yl)pyridin-3-yl)-6-fluoro-4-oxo-1,4-dihydro-1,8-naphthyridine-3-carboxylic acid] | ≤ 1 µM |  | 
O=C(O)c1cn(-c2cnccn2)c2cc(N3CCCCC3COc3ccccn3)c(Cl)cc2c1=O (stereo not shown) [Compound 211, 6-Chloro-4-oxo-1-(pyrazin-2-yl)-7-{2-[(pyridin-2-yloxy)methyl]piperidin-1-yl}quinoline-3-carboxylic acid] |  | 1 to 10 µM | 
COc1ccc(Cl)c(OCC23CC(CN2c2cc4c(cc2Cl)c(=O)c(C(=O)O)cn4-c2ccc(N4CC(N(C)C)C4)nc2)C3)n1 [Compound 258, 6-chloro-7-(1-(((3-chloro-6-methoxy-pyridin-2-yl)oxy)methyl)-2-azabicyclo [2.1.1]hexan-2-yl)-1-(6-(3-(dimethyl-amino)azetidin-1-yl)pyridin-3-yl)-4-oxo-1,4-dihydro-quinoline-3-carboxylic acid] |  | 1 to 10 µM | 
COc1ccc(Cl)c(OC[C@H]2CC(C)(C)CN2c2cc3c(cc2Cl)c(=O)c(C(=O)O)cn3-c2ccc(N3CC(N(C)C)C3)nc2)n1 [Example 648, (R)-6-chloro-7-(2-(((3-chloro-6-methoxypyridin-2-yl)oxy)methyl)-4,4-dimethylpyrrolidin-1-yl)-1-(6-(3-(dimethylamino)azetidin-1-yl)pyridin-3-yl)-4-oxo-1,4-dihydroquinoline-3-carboxylic acid] | ≤ 1 µM |  | 
CC1(n2cc(C(=O)O)c(=O)c3cc(Cl)c(N4CCC[C@@H]4CN4CCc5cccnc54)cc32)CC1 [Compound 115, (R)-6-chloro-7-(2-((2,3-dihydro-1H-pyrrolo[2,3-b]pyridin-1-yl)methyl)pyrrolidin-1-yl)-1-(1-methylcyclo-propyl)-4-oxo-1,4-dihydro-quinoline-3-carboxylic acid] |  | 1 to 10 µM | 
CN(C)C1CN(c2ccc(-n3cc(C(=O)O)c(=O)c4cc(Cl)c(N5CC(C6CCC6)C[C@@H]5COc5ncccc5Cl)cc43)cn2)C1 (stereo partly drawn) [Example 63, 6-chloro-7-((2R)-2-(((3-chloropyridin-2-yl)oxy)methyl)-4-cyclobutylpyrrolidin-1-yl)-1-(6-(3-(dimethylamino)azetidin-1-yl)pyridin-3-yl)-4-oxo-1,4-dihydroquinoline-3-carboxylic acid] |  |  | IC50 [3]: ≤ 1 µM

Continued, in another order:

IC50 [1] | IC50 [2] | Structure (SMILES) | further results
 | ≤ 1 µM | Cc1cccnc1OC[C@H]1CCCN1c1cc2c(cc1F)c(=O)c(C(=O)O)cn2-c1ccc(O)cc1F [Compound 101, (R)-6-fluoro-1-(2-fluoro-4-hydroxy-phenyl)-7-(2-(((3-methyl-pyridin-2-yl)oxy)methyl)pyrrolidin-1-yl)-4-oxo-1,4-dihydro-quinoline-3-carboxylic acid] | 
≤ 1 µM |  | COc1ccc(C)c(OC[C@H]2C[C@H]3C[C@H]3N2c2cc3c(cc2F)c(=O)c(C(=O)O)cn3-c2ccc(N3CC(N(C)C)C3)nc2)n1 [Example 682, 1-(6-(3-(dimethylamino)azetidin-1-yl)pyridin-3-yl)-6-fluoro-7-((1R,3R, 5R)-3-(((6-methoxy-3-methylpyridin-2-yl)oxy)methyl)-2-azabicyclo[3.1.0]hexan-2-yl)-4-oxo-1,4-dihydroquinoline-3-carboxylic acid] | 
1 to 10 µM |  | CCc1ccccc1-n1cc(C(=O)O)c(=O)c2cc(F)c(N3CCC[C@@H]3COc3ccccn3)cc21 [Example 404, (R)-1-(2-ethylphenyl)-6-fluoro-4-oxo-7-(2-((pyridin-2-yloxy)methyl)pyrrolidin-1-yl)-1,4-dihydroquinoline-3-carboxylic acid] | 
 | ≤ 1 µM | CN(C)C1CN(c2ccc(-n3cc(C(=O)O)c(=O)c4cc(Cl)c(N5CCC[C@@H]5COc5ncncc5Cl)cc43)cn2)C1 [Compound 167, (R)-6-chloro-7-(2-(((5-chloro-pyrimidin-4-yl)oxy)methyl)pyrrolidin-1-yl)-1-(6-(3-(dimethyl-amino)azetidin-1-yl)pyridin-3-yl)-4-oxo-1,4-dihydro-quinoline-3-carboxylic acid] | 
 | ≤ 1 µM | CN(C)C1CN(c2ccc(-n3cc(C(=O)O)c(=O)c4cc(Cl)c(N5CCC[C@@H]5COc5nnccc5Cl)cc43)cn2)C1 [Compound 173, (R)-6-chloro-7-(2-(((4-chloro-pyridazin-3-yl)oxy)methyl)pyrrolidin-1-yl)-1-(6-(3-(dimethyl-amino)azetidin-1-yl)pyridin-3-yl)-4-oxo-1,4-dihydro-quinoline-3-carboxylic acid] | 
 | ≤ 1 µM | COc1cccc(-n2cc(C(=O)O)c(=O)c3cc(F)c(N4CCC[C@@H]4COc4ccccn4)cc32)c1 [Compound 146, (R)-6-fluoro-1-(3-methoxy-phenyl)-4-oxo-7-(2-((pyridin-2-yloxy)methyl)pyrrolidin-1-yl)-1,4-dihydro-quinoline-3-carboxylic acid] | 
≤ 1 µM |  | Nc1cc(F)c(-n2cc(C(=O)O)c(=O)c3cc(Cl)c(N4CCC[C@@H]4COc4ncccc4Cl)cc32)cn1 [Example 586, (R)-1-(6-amino-4-fluoropyridin-3-yl)-6-chloro-7-(2-(((3-chloropyridin-2-yl)oxy)methyl)pyrrolidin-1-yl)-4-oxo-1,4-dihydroquinoline-3-carboxylic acid] | 
≤ 1 µM |  | Cc1cccnc1OC[C@H]1CCCN1c1cc2c(cc1F)c(=O)c(C(=O)O)cn2C1(C)CC1 [Example 356, (R)-6-fluoro-1-(1-methylcyclo-propyl)-7-(2-(((3-methylpyridin-2-yl)oxy)methyl)pyrrolidin-1-yl)-4-oxo-1,4-dihydroquinoline-3-carboxylic acid] | 
≤ 1 µM |  | CN(C)C1CN(c2ccc(-n3cc(C(=O)O)c(=O)c4cc(Cl)c(N5CCC[C@@H]5COc5ncccc5Cl)nc43)cn2)C1 [Example 532, (R)-6-chloro-7-(2-(((3-chloropyridin-2-yl)oxy)methyl)pyrrolidin-1-yl)-1-(6-(3-(dimethylamino)azetidin-1-yl)pyridin-3-yl)-4-oxo-1,4-dihydro-1,8-naphthyridine-3-carboxylic acid] | 
